Experimental data: the supplement of paper PMC10307832

What was measured:
Assay in all cases: relative viability (nuclei count vs DMSO), 5 days (fraction); higher = more cells survive
EKVX = system: EKVX
Method in brief: (§1)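 The day after seeding in 1536-well plates, lung cancer cell lines were treated by pin tool with a single drug, or with a fixed anchor-drug dose together with five library-drug doses (not always all listed) in √10 steps. After 5 days, a combined fix-and-stain solution (final 0.05% Triton X-100, 1% formaldehyde, 1 ug/ml Hoechst) was added. Nuclei counted on 4× images gave relative viability as treated counts over vehicle counts, reported as the median of duplicate plates.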

NCI-H23 = system: NCI-H23
Method in brief: as §1

NCI-H596 = system: NCI-H596
Method in brief: as §1

201T = system: 201T
Method in brief: as §1

NCI-H2126 = system: NCI-H2126
Method in brief: as §1

LCLC-103H = system: LCLC-103H
Method in brief: as §1

NCI-H727 = system: NCI-H727
Method in brief: as §1

NCI-H3122 = system: NCI-H3122
Method in brief: as §1

NCI-H2405 = system: NCI-H2405
Method in brief: as §1

NCI-H661 = system: NCI-H661
Method in brief: as §1

HARA = system: HARA
Method in brief: as §1

LOU-NH91 = system: LOU-NH91
Method in brief: as §1

HOP-62 = system: HOP-62
Method in brief: as §1

SK-LU-1 = system: SK-LU-1
Method in brief: as §1

NCI-H2228 = system: NCI-H2228
Method in brief: as §1

NCI-H1975 = system: NCI-H1975
Method in brief: as §1

PC-3 [JPC-3] = system: PC-3 [JPC-3]
Method in brief: as §1

NCI-H650 = system: NCI-H650
Method in brief: as §1

HCC-827 = system: HCC-827
Method in brief: as §1

SW 900 = system: SW 900
Method in brief: as §1

COR-L 105 = system: COR-L 105
Method in brief: as §1

H3255 = system: H3255
Method in brief: as §1

ChaGo-K-1 = system: ChaGo-K-1
Method in brief: as §1

Cc1csc(=NC2CCCCC2)n1/N=C/c1ccc(O)c(O)c1O [MIM1] + CC(=O)Nc1cccc(-n2c(=O)n(C3CC3)c(=O)c3c(Nc4ccc(I)cc4F)n(C)c(=O)c(C)c32)c1 [Trametinib] (partner 0.02 µM)
relative viability (EKVX; first compound 0.2 µM): 0.304 | relative viability (EKVX; first compound 0.6325 µM): 0.287 | relative viability (EKVX; first compound 2 µM): 0.289 | relative viability (EKVX; first compound 6.325 µM): 0.267 | relative viability (EKVX; first compound 20 µM): 0.269 | relative viability (NCI-H23; first compound 0.2 µM): 0.407 | relative viability (NCI-H23; first compound 0.6325 µM): 0.342 | relative viability (NCI-H23; first compound 2 µM): 0.326 | relative viability (NCI-H23; first compound 6.325 µM): 0.312 | relative viability (NCI-H23; first compound 20 µM): 0.163 | relative viability (NCI-H596; first compound 0.2 µM): 0.702 | relative viability (NCI-H596; first compound 0.6325 µM): 0.95 | relative viability (NCI-H596; first compound 2 µM): 0.745 | relative viability (NCI-H596; first compound 6.325 µM): 0.667 | relative viability (NCI-H596; first compound 20 µM): 0.56 | relative viability (201T; first compound 0.2 µM): 0.704 | relative viability (201T; first compound 0.6325 µM): 0.701 | relative viability (201T; first compound 2 µM): 0.736 | relative viability (201T; first compound 6.325 µM): 0.605 | relative viability (201T; first compound 20 µM): 0.761 | relative viability (NCI-H2126; first compound 0.2 µM): 0.553 | relative viability (NCI-H2126; first compound 0.6325 µM): 0.579 | relative viability (NCI-H2126; first compound 2 µM): 0.598 | relative viability (NCI-H2126; first compound 6.325 µM): 0.503 | relative viability (NCI-H2126; first compound 20 µM): 0.388 | relative viability (LCLC-103H; first compound 0.2 µM): 0.662 | relative viability (LCLC-103H; first compound 0.6325 µM): 0.687 | relative viability (LCLC-103H; first compound 2 µM): 0.694 | relative viability (LCLC-103H; first compound 6.325 µM): 0.669 | relative viability (LCLC-103H; first compound 20 µM): 0.394 | relative viability (NCI-H727; first compound 0.2 µM): 0.371 | relative viability (NCI-H727; first compound 0.6325 µM): 0.407 | relative viability (NCI-H727; first compound 2 µM): 0.393 | relative viability (NCI-H727; first compound 6.325 µM): 0.427 | relative viability (NCI-H727; first compound 20 µM): 0.383 | relative viability (NCI-H3122; first compound 0.2 µM): 0.239 | relative viability (NCI-H3122; first compound 0.6325 µM): 0.244 | relative viability (NCI-H3122; first compound 2 µM): 0.261 | relative viability (NCI-H3122; first compound 6.325 µM): 0.302 | relative viability (NCI-H3122; first compound 20 µM): 0.125 | relative viability (NCI-H2405; first compound 0.2 µM): 0.586 | relative viability (NCI-H2405; first compound 0.6325 µM): 0.75 | relative viability (NCI-H2405; first compound 2 µM): 0.656 | relative viability (NCI-H2405; first compound 6.325 µM): 0.603 | relative viability (NCI-H2405; first compound 20 µM): 0.685 | relative viability (NCI-H661; first compound 0.2 µM): 0.607 | relative viability (NCI-H661; first compound 0.6325 µM): 0.587 | relative viability (NCI-H661; first compound 2 µM): 0.554 | relative viability (NCI-H661; first compound 6.325 µM): 0.406 | relative viability (NCI-H661; first compound 20 µM): 0.348 | relative viability (HARA; first compound 0.2 µM): 0.707 | relative viability (HARA; first compound 0.6325 µM): 0.608 | relative viability (HARA; first compound 2 µM): 0.641 | relative viability (HARA; first compound 6.325 µM): 0.216 | relative viability (HARA; first compound 20 µM): 0.173 | relative viability (LOU-NH91; first compound 0.2 µM): 0.795 | relative viability (LOU-NH91; first compound 0.6325 µM): 0.839 | relative viability (LOU-NH91; first compound 2 µM): 0.646 | relative viability (LOU-NH91; first compound 6.325 µM): 0.7 | relative viability (LOU-NH91; first compound 20 µM): 0.349 | relative viability (HOP-62; first compound 0.2 µM): 0.386 | relative viability (HOP-62; first compound 0.6325 µM): 0.417 | relative viability (HOP-62; first compound 2 µM): 0.379 | relative viability (HOP-62; first compound 6.325 µM): 0.344 | relative viability (HOP-62; first compound 20 µM): 0.266 | relative viability (SK-LU-1; first compound 0.2 µM): 0.471 | relative viability (SK-LU-1; first compound 0.6325 µM): 0.528 | relative viability (SK-LU-1; first compound 2 µM): 0.516 | relative viability (SK-LU-1; first compound 6.325 µM): 0.459 | relative viability (SK-LU-1; first compound 20 µM): 0.202 | relative viability (NCI-H2228; first compound 0.2 µM): 0.54 | relative viability (NCI-H2228; first compound 0.6325 µM): 0.642 | relative viability (NCI-H2228; first compound 2 µM): 0.506 | relative viability (NCI-H2228; first compound 6.325 µM): 0.307 | relative viability (NCI-H2228; first compound 20 µM): 0.13 | relative viability (NCI-H1975; first compound 0.2 µM): 0.366 | relative viability (NCI-H1975; first compound 0.6325 µM): 0.372 | relative viability (NCI-H1975; first compound 2 µM): 0.376 | relative viability (NCI-H1975; first compound 6.325 µM): 0.208 | relative viability (NCI-H1975; first compound 20 µM): 0.123 | relative viability (PC-3 [JPC-3]; first compound 0.2 µM): 0.643 | relative viability (PC-3 [JPC-3]; first compound 0.6325 µM): 0.687 | relative viability (PC-3 [JPC-3]; first compound 2 µM): 0.655 | relative viability (PC-3 [JPC-3]; first compound 6.325 µM): 0.521 | relative viability (PC-3 [JPC-3]; first compound 20 µM): 0.558 | relative viability (NCI-H650; first compound 0.2 µM): 1.02 | relative viability (NCI-H650; first compound 0.6325 µM): 0.946 | relative viability (NCI-H650; first compound 2 µM): 1.07 | relative viability (NCI-H650; first compound 6.325 µM): 0.939 | relative viability (NCI-H650; first compound 20 µM): 0.647 | relative viability (HCC-827; first compound 0.2 µM): 0.501 | relative viability (HCC-827; first compound 0.6325 µM): 0.506 | relative viability (HCC-827; first compound 2 µM): 0.522 | relative viability (HCC-827; first compound 6.325 µM): 0.384 | relative viability (HCC-827; first compound 20 µM): 0.443 | relative viability (SW 900; first compound 0.2 µM): 0.831 | relative viability (SW 900; first compound 0.6325 µM): 0.886 | relative viability (SW 900; first compound 2 µM): 0.718 | relative viability (SW 900; first compound 6.325 µM): 0.196 | relative viability (SW 900; first compound 20 µM): 0.21 | relative viability (COR-L 105; first compound 0.2 µM): 0.45 | relative viability (COR-L 105; first compound 0.6325 µM): 0.548 | relative viability (COR-L 105; first compound 2 µM): 0.44 | relative viability (COR-L 105; first compound 6.325 µM): 0.406 | relative viability (COR-L 105; first compound 20 µM): 0.439 | relative viability (H3255; first compound 0.2 µM): 0.578 | relative viability (H3255; first compound 0.6325 µM): 0.618 | relative viability (H3255; first compound 2 µM): 0.56 | relative viability (H3255; first compound 6.325 µM): 0.529 | relative viability (H3255; first compound 20 µM): 0.293 | relative viability (ChaGo-K-1; first compound 0.2 µM): 0.889 | relative viability (ChaGo-K-1; first compound 0.6325 µM): 0.913 | relative viability (ChaGo-K-1; first compound 2 µM): 0.876 | relative viability (ChaGo-K-1; first compound 6.325 µM): 0.607 | relative viability (ChaGo-K-1; first compound 20 µM): 0.193
